Data published in patent publication US12403141B2, “Deuterated MK2 pathway inhibitors and methods of using the same” (ACLARIS THERAPEUTICS, INC., priority 2019, dated 2025).

Tested on: rat, dog, minipig, monkey, and human hepatocytes
Assay: In vitro metabolite profile in hepatocytes, summary across species
Format: in vitro ADME
Conditions: hepatocytes from rat, 10 μM, 120 min
Protocol: Briefly, each test compound (final concentration of 10 μM containing 0.1% DMSO) was incubated with rat, dog, minipig, monkey, or human hepatocytes (final viable cell density of 1×10^6 cells/mL) at 37° C. with 5% CO2 in HI hepatocyte maintenance media (BIOIVT; Catalog #Z99009) for 120 minutes. Reactions were initiated by combining 200 μL of pre-warmed 2× dosing solution containing 20 μM test compound and 0.2% DMSO in HI maintenance media with 200 μL of pre-warmed hepatocyte solution containing 2×10^6 cells/mL in HI maintenance media. Samples were taken at 0 minutes (T0) and 120 minutes (T120) by quenching the reaction with 1200 μL acetonitrile. After quenching, the samples were sonicated for 2 minutes and then centrifuged at 1400 rpm for 5 minutes. A 1400-μL aliquot of the supernatant was evaporated under a stream of N2 until dry. The dried extracts were then reconstituted with 200 μL acetonitrile: H2O (1:3 v/v), vortexed for 2 minutes and centrifuged at 14000 rpm for 5 minutes. A 2-μL aliquot of the supernatant was injected onto a Xevo UPLC-UV-G2-S Q-Tof system (Waters®) with positive-ion electrospray ionization for analysis. […]

## [2H]C([2H])(Oc1cc(C)n(-c2cc(-c3ccnc(C(C)(C)O)n3)ncc2C)c(=O)c1Cl)c1ncc(F)cc1F (single isomer, unassigned) [Example 1-D2, (P)-3-Chloro-4-((3,5-difluoropyridin-2-yl)methoxy-d2)-2′-(2-(2-hydroxypropan-2-yl)pyrimidin-4-yl)-5′,6-dimethyl-2H-[1,4′-bipyridin]-2-one]
  total number of metabolites formed: 5
